Values of other authors as cited in patent publication US11925695B2, “Methods for making ultrasound contrast agents” (Lantheus Medical Imaging, Inc., priority 2016, dated 2024).
Like-named read-outs stand apart in the source and are kept apart here. Each block holds one molecule with its values, some of them ahead of it.

Key:
[1] = not given; remark: listed apart in the source

viscosity (at 25° C.): 42 cps
SMILES: CC(O)CO (centres unmarked) [Propylene glycol, propylene glycol]

viscosity (at 15° C.): 2200 cps
SMILES: OCC(O)CO [Glycerol, glycerol]

pKa for the amine of the ethanolamine [1]: 9.3 | pKa for the hydroxyl of the phosphate [1]: 1.9
SMILES: CCCCCCCCCCCCCCCC(=O)OC[C@H](COP(=O)(O)OCCN)OC(=O)CCCCCCCCCCCCCCC [DPPE, 1,2-dipalmitoyl-sn-glycero-3-phosphatidylethanolamine]

SMILES: O [Water]
viscosity (at 15° C.): approximately 1.14 cps
